In data set [1] the test system is PDGFRα+ cells. The data set is described as follows: Flow cytometry of hindlimb skin after lymphadenectomy. In kind it is in vivo, mouse. The procedure:
(§1) A total of 32 mice underwent lymphedema surgery were randomly assigned into two groups, lymphedema group and rosiglitazone group (n=16). Rosiglitazone (Combi-Blocks, San Diego, USA) was dissolved in DMSO at the concentration of 25 mg/ml, and was diluted in corn oil to the final concentration of 2.5 mg/ml before injection. Mice in rosiglitazone group were intraperitoneally injected with rosiglitazone (10 mg/kg) twice a week from the day of surgery (day 0, 3, 7, 10, 14, 17). Mice in lymphedema group were injected with corn oil only at same time point. 8 mice in lymphedema group and rosiglitazone group were sacrificed on day 7 (n=8 per group), the rest of them were sacrificed on day 21 (n=8 per group). Another 18 mice were randomly divided into three groups, normal control group, lymphedema group, and rosiglitazone group, skin cells from these mice were isolated and used for flow cytometry analysis at day 7 (n=3 per group per staining).
Flow cytometry was performed using single-cell suspensions obtained from skin and subcutaneous tissue. 1×1 cm tissue harvested from the mice hindlimb were minced with scissors and digested by using collagenase type I (1 mg/ml) and dispase (2 mg/ml) at 37° C. on a shaker. All suspensions were filtered through 100 μm filters.
Cells were then stained with following conjugated antibodies: APC-PDGFRα (1:100), APC-PDGFRβ (1:100), HCS LipidTOX red neutral lipid stains (1:200), APC-CD45 (1:150), PE-CD3 (1:150), PerCP-Cy5-CD4 (1:150). Flow cytometry was performed on the Beckman Cytoflex FCM using CytExpert software (Beckman Coulter, CA, USA) and data were analyzed with FlowJo software (Tree Star; Ashland, OR).

Data set [2] relates to hindlimb secondary lymphedema after lymphadenectomy. The data set is described as follows: Mouse hind limb lymphedema model (lymphadenectomy): limb measurements and histology. In kind it is in vivo. Conditions: rosiglitazone 10 mg/kg i.p. twice a week; for Dermal thickness / Overall skin thickness / Subdermal layer (fibroadipose tissue) thickness: H&E.
Description: Evans blue (Sigma) (4% in PBS) was filtered and injected into mouse foot pad to stain lymph nodes in hind limb. Mouse hind limb secondary lymphedema was induced by surgical excision of the ipsilateral superficial inguinal, popliteal, deep inguinal lymph nodes, and the femoral lymphatic vessel. During surgical procedures, electrocauterization were used to prevent bleeding.
as §1
Sacrifice was performed via CO2 asphyxiation. Skin and muscle of hind limb were harvested, fixed in 10% formalin for 48 h followed by 70% ethanol for histological assessment. Formalin-fixed tissues were then dehydrated, embedded in paraffin, and sectioned with 5-micron-thickness.
Sections were stained either with Hematoxylin and Eosin (H&E) or Picrosirius Red according to standard protocol, and used to assess the overall skin thickness, dermal thickness, fibroadipose tissue thickness, and fibrosis, respectively. Quantitative histological analysis was performed using samples from day 7 and 21.
Images were captured by using Olympus BX53 (UCMAD3, T7, Japan) and all-in-one Keyence (Itasca, IL, USA) microscopes and assessed by ImageJ (version 1.52a; […]) by two independent researchers under blinded conditions. Fibrosis was assessed with the image thresholding plugin in ImageJ software, normalization is based on the length of the section (v1.52a; […]).

The conditions of data set [3]: systemic rosiglitazone [Ref. 20,21]; cited from earlier work.
Data set [4] concerns adipose-derived mesenchymal stem cells (AdMSCs) treated with TGFβ1. The data set is described as follows: Adipogenic and fibrogenic gene expression (RT-PCR) in AdMSCs treated with TGFβ1 with or without rosiglitazone. In kind it is cell-based, mouse. Conditions: TGFβ1 10 ng/ml + rosiglitazone 10 μM, 7 days, v. TGFβ1 without rosiglitazone. On the procedure:
Previous studies have established that PPARg agonists reverse the effects of pro-fibrotic transforming growth factor-beta (TGFβ) ligands.
Mice adipose-derived stem cells (ADSCs) were isolated from adult male C57BL/6J mice inguinal fat pad. ADSCs were cultured in DMEM/F12 (Sigma, Logan, UT) supplemented with 10% Fetal Bovine Serum (FBS) (Sigma) and antibiotics (penicillin and streptomycin, Hyclone). ADSCs were maintained at 37° C. under a 5% CO2 atmosphere. For rosiglitazone treatment experiment, ADSCs were treated with/without recombinant TGFβ1 (10 ng/ml) (Invitrogen, USA) and rosiglitazone (10 μM) for 7 days after seeded ([…]) in 6-well plates.
Total RNA was isolated from ADSCs using TRI reagent and RNA extraction kit (Zymo Research, Irvine, CA). First-strand cDNA was synthesized by using iScript RT-PCR mix (BioRad, Hercules, CA) according to user manual. SYBR green qPCR master Mix (BioRad, Hercules, CA), primers, and cDNA were mixed in a final reaction volume of 10 μl. Real time polymerase chain reaction (RT-PCR) were performed by using Applied Biosystems 7300 Fast Real-Time PCR System (AB) according to the manufacturer's instructions.

Where [5] appears, read: 1 cm×1 cm area of skin, day 7 after lymphadenectomy.
Where [6] appears, read: 1 week after lymphadenectomy, normalized to uninjured hindlimb.

For `CN(CCOc1ccc(CC2SC(=O)NC2=O)cc1)c1ccccn1` (stereo not shown) [rosiglitazone], in data set [1] (setting [5]), the “Absolute number of PDGFRα+LipidTOX+ cells” value was 862; the “FSC^high PDGFRα+LipidTOX+ cells (cell size)” value was 73; the “PDGFRα+ cells, absolute count” value is 0.9×10^3. The “PDGFRα+LipidTOX+ cells as a proportion of total PDGFRα cells” value in data set [1] (day 7 after lymphadenectomy, results section) was 86%. Further, the “Share of PDGFRα+ cells that were LipidTOX+” value in data set [1] (rosiglitazone-treated samples) is “over 90%”. Further, in data set [2] (setting [6]), the Normalized edema size is 1.08 and the Normalized hindlimb circumference stood at 1.31. Also, in data set [2] (1 week), the Dermal thickness was 438.54, the Overall skin thickness is recorded as 924.66 μm, the “Subdermal layer (fibroadipose tissue) thickness” value turned out to be 486.12 μm and the “Normalized hindlimb fibrosis (picrosirius red)” value is recorded as 0.130. Further, in data set [2] (3 week), the Dermal thickness turned out to be 403.76, the Overall skin thickness is recorded as 646.12 μm, the “Subdermal layer (fibroadipose tissue) thickness” value came out at 242.36 μm and the “Normalized hindlimb fibrosis (picrosirius red)” value came to 0.128. For the same compound, the Adverse effects result in data set [3] was “fluid retention, heart failure, and fractures”. Also, in data set [4], the Adipoq expression level was 2.40, the Col1a1 expression level is 0.76, the Ctgf expression level was 0.80 and the Fn1 expression level is recorded as 0.82. For the same compound, in data set [4], the Lpl expression level is 2.53 and the Pdgfra expression level stood at 0.72.

The values above are taken from patent US20250352528A1, “TOPICAL ROSIGLITAZONE FOR RADIATION-INDUCED SKIN INJURY” (The Brigham and Women's Hospital, Inc., priority 2022, published 2025).
